Laboratory results reported in ChEMBL document CHEMBL5625239, “Synthesis of 1,3,5-triphenyl-1,2,4-triazole derivatives and their neuroprotection by anti-oxidative stress and anti-inflammation and protecting BBB” (Eur J Med Chem, 2023).
The source made the active and inactive calls. No cut-off for these calls is given here.

Tests used:
[1] = biological target: T1, Prostaglandin G/H synthase 1 (Ovis aries, UniProt P05979); assay: Inhibition of ovine COX-1 using arachidonic acid as substrate preincubated with compound for 5 mins followed by substrate addition and measured after 2 mins by enzyme immunoassay
T1 sequence (P05979 whole entry): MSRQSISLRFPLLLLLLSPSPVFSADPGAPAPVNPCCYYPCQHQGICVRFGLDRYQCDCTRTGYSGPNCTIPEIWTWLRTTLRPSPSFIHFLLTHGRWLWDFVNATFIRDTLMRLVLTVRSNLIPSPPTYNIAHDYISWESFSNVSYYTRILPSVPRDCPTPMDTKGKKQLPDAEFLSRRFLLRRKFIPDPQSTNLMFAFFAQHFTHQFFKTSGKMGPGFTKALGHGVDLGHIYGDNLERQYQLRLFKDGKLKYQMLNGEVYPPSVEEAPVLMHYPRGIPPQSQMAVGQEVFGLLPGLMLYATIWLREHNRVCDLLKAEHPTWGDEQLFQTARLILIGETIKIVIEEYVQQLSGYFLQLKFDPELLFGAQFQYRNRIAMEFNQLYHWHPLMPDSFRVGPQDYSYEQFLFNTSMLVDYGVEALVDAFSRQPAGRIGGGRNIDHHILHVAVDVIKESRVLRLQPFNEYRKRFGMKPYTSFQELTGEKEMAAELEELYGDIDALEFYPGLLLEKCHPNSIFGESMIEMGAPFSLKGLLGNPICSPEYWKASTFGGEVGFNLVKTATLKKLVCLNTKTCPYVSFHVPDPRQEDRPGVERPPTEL

RAW264.7 [2] = assay: Anti-inflammatory activity in mouse RAW264.7 cells assessed as inhibition of LPS-induced NO production preincubated with compound for 1 hrs followed by LPS stimulation and measured after 24 hrs; type: functional, cell-based; conditions: time 25.0 hrs
PC-12 [3] = assay: Neuroprotective activity against SNP-induced cell damage in rat PC-12 cells pretreated with compound for 2 hrs followed by SNP addition and measured after 24 hrs by MTT assay; type: functional, cell-based; conditions: dose 2.5-100 µM, time 26.0 hrs
PC-12 [4] = assay: Protection against SNP-induced cell damage in rat PC-12 cells at 10 uM pretreated with compound for 2 hrs followed by SNP addition and measured after 24 hrs by MTT assay; type: functional, cell-based; conditions: time 26.0 hrs
RAW264.7 [5] = assay: Cytotoxicity against mouse RAW264.7 cells assessed as reduction in cell viability at 5 uM incubated for 24 hrs by MTT assay; type: toxicity, cell-based; conditions: raw264.7, 24 h
RAW264.7 [6] = assay: Anti-inflammatory activity in LPS-induced mouse RAW264.7 cells assessed as reduction in PGE2 level preincubated with compound for 1 hrs followed by LPS stimulation and measured after 24 hrs by ELISA; type: functional, cell-based; conditions: time 25.0 hrs
PC-12 [7] = assay: Neuroprotective activity against SNP-induced cell damage in rat PC-12 cells at 2.5 to 100 uM pretreated with compound for 2 hrs followed by SNP addition and measured after 24 hrs by MTT assay; type: functional, cell-based; conditions: dose 2.5-100 µM, time 26.0 hrs
Rattus norvegicus [8] = assay: Neuroprotective activity against middle cerebral artery occlusion induced ischemia stroke Sprague-Dawley rat model assessed as reduction in glycocalyx degradation by measuring decrease in serum syndecan-1 level at 20 mg/kg, ip measured after 24 hrs by ELISA; type: functional, organism-based
Rattus norvegicus [9] = assay: Neuroprotective activity against middle cerebral artery occlusion induced ischemia stroke Sprague-Dawley rat model assessed as cerebral infarction area at 10 mg/kg, ip measured after 24 hrs by TTC staining based imaging analysis (reference value: 20.08 +/- 5.70); type: functional

Row | SMILES | IC50 [1] | Activity (PC-12 [4]) | further results
1 | NS(=O)(=O)c1ccc(-n2nc(-c3ccccc3O)nc2-c2ccccc2O)cc1 | 39.2 µM | Active | Activity (RAW264.7 [2]): Active; Activity (PC-12 [3]): Dose-Dependent Effect; Activity (RAW264.7 [5]): Non-Toxic; Activity (RAW264.7 [6]): Active
2 | NS(=O)(=O)c1ccc(-n2nc(-c3ccc([N+](=O)[O-])cc3O)nc2-c2ccccc2O)cc1 |  | Active | 
3 | COc1ccc(-c2nc(-c3ccccc3O)n(-c3ccc(S(N)(=O)=O)cc3)n2)c(O)c1 | 45.5 µM | Active | 
4 | NS(=O)(=O)c1ccc(-n2nc(-c3ccc(Cl)cc3O)nc2-c2ccc(Cl)cc2O)cc1 |  | Active | 
5 | COc1ccc(-c2nc(-c3ccccc3O)n(-c3ccccc3)n2)c(O)c1 |  | Active | 
6 | CC(=O)Oc1ccccc1-c1nc(-c2ccccc2OC(C)=O)n(-c2ccccc2)n1 |  | Active | 
7 | Cc1ccc(-c2nc(-c3ccc(C)cc3O)n(-c3ccc(S(N)(=O)=O)cc3)n2)c(O)c1 |  | Active | 
8 | COc1ccc(O)c(-c2nc(-c3ccccc3O)n(-c3ccc(S(N)(=O)=O)cc3)n2)c1 | 12.8 µM | Active | 
9 | COc1ccc(-c2nc(-c3ccccc3OC(C)=O)n(-c3ccccc3)n2)c(OC(C)=O)c1 |  | Active | 
10 | NS(=O)(=O)c1ccc(-n2nc(-c3ccc(C(F)(F)F)cc3)nc2-c2ccccc2O)cc1 | 43.4 µM | Active | Activity (RAW264.7 [2]): Active; Activity (RAW264.7 [5]): Non-Toxic; Activity (RAW264.7 [6]): Active
11 | CS(=O)(=O)c1ccc(-n2nc(-c3ccccc3O)nc2-c2ccccc2O)cc1 |  | Active | 
12 | CC(=O)Oc1cc(C(F)(F)F)ccc1-c1nc(-c2ccccc2OC(C)=O)n(-c2ccccc2)n1 |  | Active | 
13 | Oc1ccccc1-c1nc(-c2ccccc2O)n(-c2ccccc2)n1 |  | Active | 
14 | NS(=O)(=O)c1ccc(-n2nc(-c3ccc(F)cc3)nc2-c2ccccc2O)cc1 | 41.6 µM | Active | Activity (RAW264.7 [2]): Active; Activity (RAW264.7 [5]): Non-Toxic; Activity (RAW264.7 [6]): Active
15 | COc1cccc(-c2nc(-c3ccccc3O)n(-c3ccc(S(N)(=O)=O)cc3)n2)c1O | 20 µM | Active | 
16 | Cc1ccc(-c2cc(C(F)(F)F)nn2-c2ccc(S(N)(=O)=O)cc2)cc1 [CELECOXIB] |  |  | Activity (RAW264.7 [2]): Active; Activity (PC-12 [7]): inactive; Activity (RAW264.7 [5]): Non-Toxic; Activity (RAW264.7 [6]): Active
17 | NS(=O)(=O)c1ccc(-n2nc(-c3ccc(C(F)(F)F)cc3O)nc2-c2ccc(C(F)(F)F)cc2O)cc1 |  | Active | 
18 | Cc1ccc(-c2nc(-c3ccccc3O)n(-c3ccc(S(N)(=O)=O)cc3)n2)c(O)c1 | 42.3 µM | Active | Activity (RAW264.7 [2]): Active; Activity (PC-12 [3]): Dose-Dependent Effect; Activity (RAW264.7 [5]): Non-Toxic; Activity (RAW264.7 [6]): Active
19 | COc1ccc(-c2nc(-c3ccccc3O)n(-c3ccc(S(N)(=O)=O)cc3)n2)cc1 |  | Active | 
20 | CC1=NN(c2ccccc2)C(=O)C1 [EDARAVONE] |  |  | Activity (Rattus norvegicus [8]): Active; Activity (Rattus norvegicus [9]): 15.41
21 | CS(=O)(=O)c1ccc(-n2nc(-c3ccc(C(F)(F)F)cc3O)nc2-c2ccccc2O)cc1 | 82.1 µM | Active | Activity (RAW264.7 [2]): Active; Activity (PC-12 [3]): Dose-Dependent Effect; Activity (RAW264.7 [5]): Non-Toxic; Activity (RAW264.7 [6]): Active
22 | COc1ccc(-c2nc(-c3ccc(OC)cc3O)n(-c3ccc(S(N)(=O)=O)cc3)n2)c(O)c1 |  | Active | 
23 | NS(=O)(=O)c1ccc(-n2nc(-c3ccc([N+](=O)[O-])cc3)nc2-c2ccccc2O)cc1 |  | Active | 
24 | NS(=O)(=O)c1ccc(-n2nc(-c3ccc(Cl)cc3O)nc2-c2ccccc2O)cc1 | 25.6 µM | Active | 
25 | COc1ccc(-c2nc(-c3ccccc3O)n(-c3ccc(S(C)(=O)=O)cc3)n2)c(O)c1 |  | Active | 
26 | NS(=O)(=O)c1ccc(-n2nc(-c3ccccc3)nc2-c2ccccc2O)cc1 | 32.1 µM | Active | Activity (RAW264.7 [2]): Active; Activity (RAW264.7 [5]): Non-Toxic; Activity (RAW264.7 [6]): Active
27 | NS(=O)(=O)c1ccc(-n2nc(-c3ccc(F)cc3O)nc2-c2ccccc2O)cc1 |  | Active | 
28 | NS(=O)(=O)c1ccc(-n2nc(-c3ccc(F)cc3O)nc2-c2ccc(F)cc2O)cc1 | 26.3 µM | Active | Activity (RAW264.7 [2]): Active; Activity (PC-12 [3]): Dose-Dependent Effect; Activity (RAW264.7 [5]): Non-Toxic; Activity (RAW264.7 [6]): Active
29 | Oc1cc(C(F)(F)F)ccc1-c1nc(-c2ccccc2O)n(-c2ccccc2)n1 |  | Active | 
